Experimental data published in ChEMBL document CHEMBL3826930, “Antitumor activities of biscoumarin and dihydropyran derivatives” (Bioorg Med Chem Lett, 2016).
Converted amounts (≈) assume the structure as drawn.

What was measured:
[1] = Antiproliferative activity against human HuTu 80 cells after 48 hrs by MTT assay; assay type: functional, cell-based; conditions: HuTu80, 48 h
[2] = Antiproliferative activity against human PANC1 cells after 48 hrs by MTT assay; assay type: functional, cell-based; conditions: PANC-1, 48 h
4T1 [3] = test: Antiproliferative activity against mouse 4T1 cells after 48 hrs by MTT assay; assay type: functional, cell-based; conditions: 4T1, 48 h
[4] = (§1) Cytotoxicity against HEK293 cells assessed as reduction in cell survival after 48 hrs by MTT assay; assay type: cell-based, Homo sapiens; conditions: human, HEK293 cells
HEK293 [5] = test: as §1; assay type: cell-based, Homo sapiens; conditions: Homo sapiens, HEK293, 48 h
[6] = (§2) Cytotoxicity against HUVEC assessed as reduction in cell survival after 48 hrs by MTT assay; assay type: cell-based, Homo sapiens; conditions: human, HUVEC cells
HUVEC = test: as §2; assay type: cell-based, Homo sapiens; conditions: Homo sapiens, HUVEC, 48 h
Mus musculus [7] = test: Acute toxicity in Kunming mouse assessed as physical/abnormal changes in eyes at 500 mg/kg, administered as single dose after 14 days; assay type: organism-based; conditions: in vivo, 336 h
4T1 [8] = test: Selectivity index, ratio of IC50 for HUVEC to IC50 for mouse 4T1 cells
HuTu80 = test: Selectivity index, ratio of IC50 for HUVEC to IC50 for human HuTu 80 cells
Mus musculus [9] = test: Acute toxicity in Kunming mouse assessed as behavior pattern abnormality at 500 mg/kg, administered as single dose after 14 days; assay type: organism-based; conditions: in vivo, 336 h
Mus musculus [10] = test: Acute toxicity in Kunming mouse assessed as tremor induction at 500 mg/kg, administered as single dose after 14 days; assay type: organism-based; conditions: in vivo, 336 h
Mus musculus [11] = test: Acute toxicity in Kunming mouse assessed as induction of salivation at 500 mg/kg, administered as single dose after 14 days; assay type: organism-based; conditions: in vivo, 336 h
HEK293 [12] = test: Selectivity index, ratio of IC50 for HEK293 cells to IC50 for human HuTu 80 cells; assay type: functional
Mus musculus [13] = test: Acute toxicity in Kunming mouse assessed as physical/abnormal changes in skin at 500 mg/kg, administered as single dose after 14 days; assay type: organism-based; conditions: in vivo, 336 h
Mus musculus [14] = test: Acute toxicity in Kunming mouse assessed as physical/abnormal changes in fur at 500 mg/kg, administered as single dose after 14 days; assay type: organism-based; conditions: in vivo, 336 h
Mus musculus [15] = test: Acute toxicity in Kunming mouse assessed as survival at 500 mg/kg, administered as single dose measured on day 14 post dose; assay type: organism-based; conditions: in vivo
Mus musculus [16] = test: Acute toxicity in Kunming mouse assessed as structural abnormality in liver at 500 mg/kg, administered as single dose after 14 days by hematoxylin and eosin staining based histological analysis; assay type: organism-based; conditions: in vivo, 336 h
Mus musculus [17] = test: Acute toxicity in Kunming mouse assessed as structural abnormality in kidney at 500 mg/kg, administered as single dose after 14 days by hematoxylin and eosin staining based histological analysis; assay type: organism-based; conditions: in vivo, 336 h
HEK293 [18] = test: Selectivity index, ratio of IC50 for HEK293 cells to IC50 for human PANC1 cells; assay type: functional
Mus musculus [19] = test: Acute toxicity in Kunming mouse assessed as sleep pattern abnormality at 500 mg/kg, administered as single dose after 14 days; assay type: organism-based; conditions: in vivo, 336 h
Mus musculus [20] = test: Acute toxicity in Kunming mouse assessed as physical/abnormal changes in mucus membrane at 500 mg/kg, administered as single dose after 14 days; assay type: organism-based; conditions: in vivo, 336 h
HEK293 [21] = test: Selectivity index, ratio of IC50 for HEK293 cells to IC50 for mouse 4T1 cells; assay type: functional
PANC-1 = test: Selectivity index, ratio of IC50 for HUVEC to IC50 for human PANC1 cells

Compound: COc1cccc(C2C(C#N)=C(N)OC3=C2C(=O)CC(C)(C)C3)c1 (stereo not given)
- IC50 [1]: 283 µg/mL (≈ 873 µM)
- IC90 [1]: > 500 µg/mL
- IC50 [2]: > 300 µg/mL
- IC90 [2]: > 500 µg/mL
- IC50 (4T1 [3]): 248 µg/mL (≈ 764 µM)
- IC90 (4T1 [3]): > 500 µg/mL

Compound: N#CC1=C(N)OC2=C(C(=O)CC2)C1c1cccc(C#N)c1 (stereo not given)
- IC50 [1]: 191 µg/mL (≈ 690 µM)
- IC90 [1]: 381 µg/mL (≈ 1370 µM)
- IC50 [2]: 143 µg/mL (≈ 515 µM)
- IC90 [2]: 317 µg/mL (≈ 1140 µM)
- IC50 (4T1 [3]): 125 µg/mL (≈ 452 µM)
- IC90 (4T1 [3]): 299 µg/mL (≈ 1080 µM)

Compound: CC1(C)CC(=O)C2=C(C1)OC(N)=C(C#N)C2c1cc(C(F)(F)F)cc(C(F)(F)F)c1 (stereo not given)
- IC50 [1]: > 300 µg/mL
- IC90 [1]: > 500 µg/mL
- IC50 [2]: > 300 µg/mL
- IC90 [2]: > 500 µg/mL
- IC50 (4T1 [3]): > 300 µg/mL
- IC90 (4T1 [3]): > 500 µg/mL

Compound: N#CC1=C(N)OC2=C(C(=O)CC2)C1c1ccc(Cl)cc1Cl (stereo not given)
- IC50 [1]: 150 µg/mL (≈ 466 µM)
- IC90 [1]: 302 µg/mL (≈ 941 µM)
- IC50 [2]: 156 µg/mL (≈ 486 µM)
- IC90 [2]: 325 µg/mL (≈ 1010 µM)
- IC50 (4T1 [3]): 127 µg/mL (≈ 396 µM)
- IC90 (4T1 [3]): 307 µg/mL (≈ 955 µM)

Compound: CC1(C)CC(=O)C2=C(C1)OC(N)=C(C#N)C2c1ccc(S(C)(=O)=O)cc1 (stereo not given)
- IC50 [1]: > 300 µg/mL
- IC90 [1]: > 500 µg/mL
- IC50 [2]: > 300 µg/mL
- IC90 [2]: > 500 µg/mL
- IC50 (4T1 [3]): > 300 µg/mL
- IC90 (4T1 [3]): > 500 µg/mL

Compound: CC(C)(C)c1ccc(C2C(C#N)=C(N)OC3=C2C(=O)CC3)cc1 (stereo not given)
- IC50 [1]: 103 µg/mL (≈ 334 µM)
- IC90 [1]: 233 µg/mL (≈ 757 µM)
- IC50 [2]: 219 µg/mL (≈ 711 µM)
- IC90 [2]: 435 µg/mL (≈ 1410 µM)
- IC50 (4T1 [3]): 117 µg/mL (≈ 378 µM)
- IC90 (4T1 [3]): 288 µg/mL (≈ 936 µM)

Compound: COc1ccc(C(c2c(O)c3ccccc3oc2=O)c2c(O)c3ccccc3oc2=O)cc1
- IC50 [1]: 53.8 µg/mL (≈ 122 µM)
- IC90 [1]: 103 µg/mL (≈ 233 µM)
- IC90 at 48 h [4]: 322 µg/mL (≈ 727 µM)
- IC50 (HEK293 [5]): 165 µg/mL (≈ 373 µM)
- IC90 at 48 h [6]: 363 µg/mL (≈ 821 µM)
- IC50 (HUVEC): 199 µg/mL (≈ 450 µM)
- IC50 [2]: 42.5 µg/mL (≈ 96.1 µM)
- IC90 [2]: 82.5 µg/mL (≈ 186 µM)
- Activity (Mus musculus [7]): Non-toxic
- Ratio IC50 (4T1 [8]): 2.3
- Ratio IC50 (HuTu80): 3.7
- Activity (Mus musculus [9]): Non-toxic
- Activity (Mus musculus [10]): Non-toxic
- Activity (Mus musculus [11]): Non-toxic
- Ratio IC50 (HEK293 [12]): 3.1
- Activity (Mus musculus [13]): Non-toxic
- Activity (Mus musculus [14]): Non-toxic
- Activity (Mus musculus [15]): Non-toxic
- Activity (Mus musculus [16]): Non-toxic
- IC50 (4T1 [3]): 85.7 µg/mL (≈ 194 µM)
- IC90 (4T1 [3]): 167 µg/mL (≈ 377 µM)
- Activity (Mus musculus [17]): Non-toxic
- Ratio IC50 (HEK293 [18]): 3.9
- Activity (Mus musculus [19]): Non-toxic
- Activity (Mus musculus [20]): Non-toxic
- Ratio IC50 (HEK293 [21]): 1.9
- Ratio IC50 (PANC-1): 4.7

Compound: N#Cc1ccc(C(c2c(O)c3ccccc3oc2=O)c2c(O)c3ccccc3oc2=O)cc1
- IC50 [1]: 47.6 µg/mL (≈ 109 µM)
- IC90 [1]: 98.3 µg/mL (≈ 225 µM)
- IC90 at 48 h [4]: 343 µg/mL (≈ 783 µM)
- IC50 (HEK293 [5]): 180 µg/mL (≈ 411 µM)
- IC90 at 48 h [6]: 322 µg/mL (≈ 735 µM)
- IC50 (HUVEC): 162 µg/mL (≈ 371 µM)
- IC50 [2]: 93.5 µg/mL (≈ 214 µM)
- IC90 [2]: 202 µg/mL (≈ 461 µM)
- Activity (Mus musculus [7]): Non-toxic
- Ratio IC50 (4T1 [8]): 3.1
- Ratio IC50 (HuTu80): 3.4
- Activity (Mus musculus [9]): Non-toxic
- Activity (Mus musculus [10]): Non-toxic
- Activity (Mus musculus [11]): Non-toxic
- Ratio IC50 (HEK293 [12]): 3.8
- Activity (Mus musculus [13]): Non-toxic
- Activity (Mus musculus [14]): Non-toxic
- Activity (Mus musculus [15]): Non-toxic
- Activity (Mus musculus [16]): Non-toxic
- IC50 (4T1 [3]): 51.5 µg/mL (≈ 118 µM)
- IC90 (4T1 [3]): 102 µg/mL (≈ 233 µM)
- Activity (Mus musculus [17]): Non-toxic
- Ratio IC50 (HEK293 [18]): 1.9
- Activity (Mus musculus [19]): Non-toxic
- Activity (Mus musculus [20]): Non-toxic
- Ratio IC50 (HEK293 [21]): 3.5
- Ratio IC50 (PANC-1): 1.73
